Molecular target: flavodoxin (Nitratidesulfovibrio vulgaris, UniProt P00323, W140F)
Assay: FMN retained on purification
Assay type: binding
Conditions: oxidized state; as purified, before FMN removal

Chain of flavodoxin (P00323 whole entry W140F): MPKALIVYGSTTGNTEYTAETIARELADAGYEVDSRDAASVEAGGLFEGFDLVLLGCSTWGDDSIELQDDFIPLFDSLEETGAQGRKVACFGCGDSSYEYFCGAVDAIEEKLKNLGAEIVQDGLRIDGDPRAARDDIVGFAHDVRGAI

SMILES: Cc1cc2nc3c(=O)[nH]c(=O)nc-3n(C[C@H](O)[C@H](O)[C@H](O)COP(=O)(O)O)c2cc1C [FMN]
- FMN retained on purification: the two flavodoxin mutants (W60FY98F and W140F) contained the oxidized FMN
